In BindingDB's records for doi:10.1021/cb300671s (National Cancer Institute-Bethesda, 2013) one finds Kd data, which are given here for three compounds.

For one experiment, the target named is Protein kinase C (Mus musculus, UniProt Q4VA93).
Experiment [1] addresses Protein kinase C alpha type (Homo sapiens, UniProt P17252).
Experiment [2] concerns the target Protein kinase C beta type (Homo sapiens, UniProt P05771).
Experiment [3] deals with T1, Protein kinase C epsilon type (Homo sapiens, UniProt Q02156).
T1 sequence (Q02156 whole entry): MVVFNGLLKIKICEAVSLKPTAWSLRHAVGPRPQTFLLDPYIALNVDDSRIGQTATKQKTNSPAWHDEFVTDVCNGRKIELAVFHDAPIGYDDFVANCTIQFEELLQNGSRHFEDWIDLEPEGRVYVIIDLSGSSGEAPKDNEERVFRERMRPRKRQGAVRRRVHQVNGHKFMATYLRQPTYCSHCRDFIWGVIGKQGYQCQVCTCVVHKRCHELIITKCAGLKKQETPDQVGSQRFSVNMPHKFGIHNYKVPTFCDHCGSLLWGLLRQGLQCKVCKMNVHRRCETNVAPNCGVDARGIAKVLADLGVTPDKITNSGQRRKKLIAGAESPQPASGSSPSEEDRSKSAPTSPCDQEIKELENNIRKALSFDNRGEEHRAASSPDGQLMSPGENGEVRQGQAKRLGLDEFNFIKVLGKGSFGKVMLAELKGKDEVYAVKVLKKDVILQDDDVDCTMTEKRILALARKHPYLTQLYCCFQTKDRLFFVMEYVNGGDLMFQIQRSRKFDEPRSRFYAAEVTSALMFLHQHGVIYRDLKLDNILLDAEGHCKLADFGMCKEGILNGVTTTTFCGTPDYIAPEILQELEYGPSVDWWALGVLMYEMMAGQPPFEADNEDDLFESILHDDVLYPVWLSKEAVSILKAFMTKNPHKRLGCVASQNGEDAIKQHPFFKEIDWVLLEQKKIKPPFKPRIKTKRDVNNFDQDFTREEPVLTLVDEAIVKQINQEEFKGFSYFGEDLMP

Experiment [4] addresses Protein kinase C delta type (Homo sapiens, UniProt Q05655).

SMILES strings stand for the structures.

Protein kinase C beta type, sequence (P05771 whole entry): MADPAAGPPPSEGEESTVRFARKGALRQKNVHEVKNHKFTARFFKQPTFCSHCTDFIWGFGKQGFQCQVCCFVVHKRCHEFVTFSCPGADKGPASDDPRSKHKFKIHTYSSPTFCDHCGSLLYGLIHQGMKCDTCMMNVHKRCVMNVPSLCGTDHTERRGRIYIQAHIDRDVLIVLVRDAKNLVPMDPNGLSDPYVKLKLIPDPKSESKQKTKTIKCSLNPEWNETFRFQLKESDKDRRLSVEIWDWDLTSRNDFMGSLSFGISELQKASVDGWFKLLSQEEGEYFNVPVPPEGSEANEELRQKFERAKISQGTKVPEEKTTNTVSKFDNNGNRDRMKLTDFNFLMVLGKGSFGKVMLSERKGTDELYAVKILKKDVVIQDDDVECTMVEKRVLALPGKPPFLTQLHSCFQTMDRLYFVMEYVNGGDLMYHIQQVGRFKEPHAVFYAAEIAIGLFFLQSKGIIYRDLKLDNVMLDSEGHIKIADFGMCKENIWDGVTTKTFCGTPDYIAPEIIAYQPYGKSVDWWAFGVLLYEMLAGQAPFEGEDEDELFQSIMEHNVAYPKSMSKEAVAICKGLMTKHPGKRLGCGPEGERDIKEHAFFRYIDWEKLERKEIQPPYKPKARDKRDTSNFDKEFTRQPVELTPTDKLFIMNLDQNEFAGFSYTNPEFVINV
Protein kinase C delta type, sequence (Q05655 whole entry): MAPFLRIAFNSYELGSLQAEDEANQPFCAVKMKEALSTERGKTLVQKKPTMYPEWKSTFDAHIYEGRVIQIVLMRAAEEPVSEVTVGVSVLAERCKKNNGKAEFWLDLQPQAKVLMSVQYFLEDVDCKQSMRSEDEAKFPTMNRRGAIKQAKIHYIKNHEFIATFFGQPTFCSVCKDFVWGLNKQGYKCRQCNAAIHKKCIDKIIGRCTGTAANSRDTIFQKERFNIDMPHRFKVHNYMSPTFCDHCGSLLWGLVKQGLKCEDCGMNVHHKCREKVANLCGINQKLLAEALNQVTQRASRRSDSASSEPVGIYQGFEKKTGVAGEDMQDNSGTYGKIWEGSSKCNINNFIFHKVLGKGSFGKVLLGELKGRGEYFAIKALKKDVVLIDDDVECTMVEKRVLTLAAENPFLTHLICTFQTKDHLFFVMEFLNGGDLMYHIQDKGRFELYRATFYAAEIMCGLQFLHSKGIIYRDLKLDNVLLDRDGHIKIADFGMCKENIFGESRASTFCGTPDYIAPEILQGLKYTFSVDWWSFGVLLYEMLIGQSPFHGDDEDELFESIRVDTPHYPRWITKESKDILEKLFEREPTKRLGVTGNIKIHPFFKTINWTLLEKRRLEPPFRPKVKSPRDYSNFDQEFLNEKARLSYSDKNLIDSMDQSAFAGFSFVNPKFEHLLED

Take `CCCC(=O)O[C@@H]1[C@@H](C)[C@@]2(O)[C@@H](C=C(CO)C[C@@]3(O)C(=O)C(C)=C[C@@H]23)[C@H]2C(C)(C)[C@]12OC(=O)CCC` [Butyric acid (1aS,1bS,4aS,7aS,8R,9S,9aR)-9-butyryloxy-4a,7b-dihydroxy-3-((R)-hydroxymethyl)-1,1,6,8-tetramethyl-5-oxo-1,1a,1b,4,4a,5,7a,7b,8,9-decahydro-cyclopropa[3,4]benzo[1,2-e]azulen-9a-yl ester]: on Protein kinase C, the Kd turned out to be 300 pM. In other words, the sub-nanomolar range.

Regarding `CCC/C=C/C=C/C(=O)O[C@H]1/C(=C/C(=O)OC)C[C@H]2C[C@H]([C@@H](C)O)OC(=O)C[C@H](O)C[C@@H]3C[C@H](OC(C)=O)C(C)(C)[C@](O)(C[C@@H]4C/C(=C/C(=O)OC)C[C@H](/C=C/C(C)(C)[C@]1(O)O2)O4)O3`, the Kd was 730 pM in experiment [1], 420 pM in experiment [2], 240 pM in experiment [3] and 480 pM at Protein kinase C.

In the case of `COC(=O)/C=C1/C[C@H]2C[C@]3(O)O[C@H](C[C@@H](O)CC(=O)O[C@@H]([C@@H](C)O)C[C@@H]4C/C(=C\C(=O)OC)[C@H](OC(C)=O)[C@@](O)(O4)C(C)(C)/C=C/[C@@H](C1)O2)C[C@H](OC(C)=O)C3(C)C` [Bryostatin], the dissociation constant Kd came out at 440 pM in experiment [1]; 320 pM in experiment [2]; 210 pM in experiment [4]; 160 pM in experiment [3]; 260 pM at Protein kinase C.
